According to PubChem BioAssay AID180 (DTP/NCI, 2004):
Where “and” joins values, the source holds several entries; their conditions need not be identical. Equal entries are not always repeated.

Tested on: BDF1 mice, Adenocarcinoma 755 s.c., tumor weight T/C
Test: NCI In Vivo Anticancer Drug Screen. Data for tumor model Adenocarcinoma 755 (subcutaneous) in B6D2F1 (BDF1) mice
Settings: endpoint: mean tumor weight, higher = larger tumour
Summary of the method: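 Values express treated (T) relative to vehicle-dosed control (C) animals, based on survival or tumour size measured after compound treatment of mice bearing a transplanted tumour.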

[1] = dose: 200.0 mg/kg/injection, schedule: Q01DX011 (ip), vehicle: carboxymethylcellulose (CMC)
[2] = dose: 75.0 mg/kg/injection, schedule: Q01DX011 (ip), vehicle: methylcellulose (MC)
[3] = dose: 62.5 mg/kg/injection, schedule: Q01DX011 (ip), vehicle: carboxymethylcellulose (CMC)
[4] = dose: 125.0 mg/kg/injection, schedule: Q01DX011 (ip), vehicle: carboxymethylcellulose (CMC)

O=[N+]([O-])c1ccc(Oc2cc(Cl)c(Cl)cc2Cl)c([N+](=O)[O-])c1
T/C (dose: 100.0 mg/kg/injection, schedule: Q01DX011 (ip), vehicle: other): 91 % of control | T/C [1]: 56 % of control and 74 % of control | T/C (dose: 200.0 mg/kg/injection, schedule: Q01DX011 (ip), vehicle: other): 91 % of control | T/C (dose: 400.0 mg/kg/injection, schedule: Q01DX011 (ip), vehicle: carboxymethylcellulose (CMC)): 61 % of control | T/C (dose: 400.0 mg/kg/injection, schedule: Q01DX011 (ip), vehicle: other): 54 % of control | T/C (dose: 800.0 mg/kg/injection, schedule: Q01DX011 (ip), vehicle: carboxymethylcellulose (CMC)): 19 % of control | T/C (dose: 800.0 mg/kg/injection, schedule: Q01DX011 (ip), vehicle: other): 33 % of control

CC(=O)[C@H]1CC[C@H]2[C@@H]3CCC4=CC(=O)CC[C@]4(C)[C@H]3CC[C@]12C
T/C (dose: 250.0 mg/kg/injection, schedule: Q01DX011 (sc), vehicle: steriod suspending solution): 97 % of control | T/C (dose: 500.0 mg/kg/injection, schedule: Q01DX011 (sc), vehicle: steriod suspending solution): 46 % of control

Nc1nc(Oc2ccc(Cl)cc2)c2n[nH]nc2n1
T/C [1]: 66 % of control

N#[N+]c1cnc([O-])[nH]c1=O
T/C (dose: 1.25 mg/kg/injection, schedule: Q01DX011 (ip), vehicle: carboxymethylcellulose (CMC)): 111 % of control | T/C (dose: 1.41 mg/kg/injection, schedule: Q01DX011 (ip), vehicle: carboxymethylcellulose (CMC)): 80 % of control | T/C (dose: 1.47 mg/kg/injection, schedule: Q01DX011 (ip), vehicle: carboxymethylcellulose (CMC)): 116 % of control | T/C (dose: 2.5 mg/kg/injection, schedule: Q01DX011 (ip), vehicle: carboxymethylcellulose (CMC)): 53 % of control | T/C (dose: 2.83 mg/kg/injection, schedule: Q01DX011 (ip), vehicle: carboxymethylcellulose (CMC)): 108 % of control | T/C (dose: 2.95 mg/kg/injection, schedule: Q01DX011 (ip), vehicle: carboxymethylcellulose (CMC)): 98 % of control | T/C (dose: 5.0 mg/kg/injection, schedule: Q01DX011 (ip), vehicle: carboxymethylcellulose (CMC)): 39 % of control | T/C (dose: 5.65 mg/kg/injection, schedule: Q01DX011 (ip), vehicle: carboxymethylcellulose (CMC)): 94 % of control | T/C (dose: 5.9 mg/kg/injection, schedule: Q01DX011 (ip), vehicle: carboxymethylcellulose (CMC)): 76 % of control | T/C (dose: 11.3 mg/kg/injection, schedule: Q01DX011 (ip), vehicle: carboxymethylcellulose (CMC)): 49 % of control | T/C (dose: 1170.0 micrograms/kg/injection, schedule: Q01DX011 (ip), vehicle: carboxymethylcellulose (CMC)): 86 % of control | T/C (dose: 2925.0 micrograms/kg/injection, schedule: Q01DX011 (ip), vehicle: carboxymethylcellulose (CMC)): 78 % of control

CCOC(=O)c1cnc(SCc2ccccc2Cl)nc1N1CC1
T/C (dose: 8.0 mg/kg/injection, schedule: Q01DX011 (ip), vehicle: carboxymethylcellulose (CMC)): 54 % of control | T/C (dose: 8.0 mg/kg/injection, schedule: Q01DX011 (ip), vehicle: other): 110 % of control | T/C (dose: 16.0 mg/kg/injection, schedule: Q01DX011 (ip), vehicle: carboxymethylcellulose (CMC)): 75 % of control | T/C (dose: 16.0 mg/kg/injection, schedule: Q01DX011 (ip), vehicle: other): 70 % of control | T/C (dose: 28.0 mg/kg/injection, schedule: Q01DX011 (ip), vehicle: carboxymethylcellulose (CMC)): 29 % of control | T/C (dose: 28.0 mg/kg/injection, schedule: Q01DX011 (ip), vehicle: other): 62 % of control | T/C (dose: 56.0 mg/kg/injection, schedule: Q01DX011 (ip), vehicle: carboxymethylcellulose (CMC)): 16 % of control | T/C (dose: 56.0 mg/kg/injection, schedule: Q01DX011 (ip), vehicle: other): 22 % of control

CN(C)N=Nc1ccc(CCCC(=O)NN)cc1
T/C (dose: 31.0 mg/kg/injection, schedule: Q01DX011 (ip), vehicle: carboxymethylcellulose (CMC)): 60 % of control | T/C (dose: 62.0 mg/kg/injection, schedule: Q01DX011 (ip), vehicle: carboxymethylcellulose (CMC)): 10 % of control

CCNc1ncnc2c1cnn2C1CCCO1 (stereo unspecified)
T/C (dose: 3.1 mg/kg/injection, schedule: Q01DX011 (ip), vehicle: methylcellulose (MC)): 61 % of control | T/C (dose: 6.2 mg/kg/injection, schedule: Q01DX011 (ip), vehicle: methylcellulose (MC)): 39 % of control | T/C (dose: 12.5 mg/kg/injection, schedule: Q01DX011 (ip), vehicle: methylcellulose (MC)): 3 % of control

Nc1ncc2[nH]c(N)nc2n1
T/C (dose: 25.0 mg/kg/injection, schedule: Q01DX011 (ip), vehicle: methylcellulose (MC)): 58 % of control | T/C [2]: 73 % of control

O=c1[nH]c(=O)n(C2CC(O)C(CO)O2)cc1I (stereo unspecified)
T/C (dose: 31.25 mg/kg/injection, schedule: Q01DX011 (ip), vehicle: carboxymethylcellulose (CMC)): 62 % of control | T/C [3]: 65 % of control | T/C [4]: 28 % of control and 51 % of control

C[C@@H]1CC2=CC(=O)C=C[C@]2(C)[C@H]2CC[C@@]3(C)[C@@H](CC[C@]3(C)O)[C@H]12
T/C (dose: 400.0 mg/kg/injection, schedule: Q01DX011 (sc), vehicle: steriod suspending solution): 16 % of control | T/C (dose: 800.0 mg/kg/injection, schedule: Q01DX011 (sc), vehicle: steriod suspending solution): 33 % of control

[OH-].[OH-].[Pd+2].c1ccc(CSc2ncnc3nc[nH]c23)cc1.c1ccc(CSc2ncnc3nc[nH]c23)cc1.c1ccc(CSc2ncnc3nc[nH]c23)cc1.c1ccc(CSc2ncnc3nc[nH]c23)cc1
T/C (dose: 3.0 mg/kg/injection, schedule: Q01DX011 (ip), vehicle: saline): 76 % of control | T/C (dose: 6.0 mg/kg/injection, schedule: Q01DX011 (ip), vehicle: saline): 36 % of control | T/C (dose: 12.0 mg/kg/injection, schedule: Q01DX011 (ip), vehicle: saline): 17 % of control | T/C (dose: 12.5 mg/kg/injection, schedule: Q01DX011 (ip), vehicle: saline): 16 % of control | T/C (dose: 25.0 mg/kg/injection, schedule: Q01DX011 (ip), vehicle: saline): 1 % of control | T/C (dose: 50.0 mg/kg/injection, schedule: Q01DX011 (ip), vehicle: saline): 1 % of control | T/C (dose: 100.0 mg/kg/injection, schedule: Q01DX011 (ip), vehicle: saline): 1 % of control | T/C (dose: 200.0 mg/kg/injection, schedule: Q01DX011 (ip), vehicle: saline): 1 % of control

CCSc1nc(N)nc2c1ncn2C1OC(CO)C(O)C1O (stereo unspecified)
T/C (dose: 9.3 mg/kg/injection, schedule: Q01DX011 (ip), vehicle: methylcellulose (MC)): 55 % of control | T/C (dose: 18.7 mg/kg/injection, schedule: Q01DX011 (ip), vehicle: methylcellulose (MC)): 39 % of control | T/C (dose: 37.5 mg/kg/injection, schedule: Q01DX011 (ip), vehicle: methylcellulose (MC)): 3 % of control | T/C [2]: 4 % of control

O=C(CCBr)Nc1ccc(NC(=O)CCBr)cc1
T/C (dose: 56.0 mg/kg/injection, schedule: Q01DX011 (ip), vehicle: methylcellulose (MC)): 113 % of control | T/C (dose: 113.0 mg/kg/injection, schedule: Q01DX011 (ip), vehicle: methylcellulose (MC)): 108 % of control | T/C (dose: 225.0 mg/kg/injection, schedule: Q01DX011 (ip), vehicle: methylcellulose (MC)): 100 % of control | T/C (dose: 450.0 mg/kg/injection, schedule: Q01DX011 (ip), vehicle: methylcellulose (MC)): 117 % of control

Cn1cnc2nc[nH]c2c1=O
T/C (dose: 31.2 mg/kg/injection, schedule: Q01DX011 (ip), vehicle: carboxymethylcellulose (CMC)): 95 % of control | T/C [3]: 99 % of control | T/C [4]: 108 % of control | T/C (dose: 250.0 mg/kg/injection, schedule: Q01DX011 (ip), vehicle: carboxymethylcellulose (CMC)): 116 % of control

C[N+]1(C)CCN(C(=O)CCCl)CC1
T/C (dose: 3.1 mg/kg/injection, schedule: Q01DX011 (ip), vehicle: other): 47 % of control | T/C (dose: 6.2 mg/kg/injection, schedule: Q01DX011 (ip), vehicle: other): 93 % of control | T/C (dose: 12.5 mg/kg/injection, schedule: Q01DX011 (ip), vehicle: other): 66 % of control

Cc1nnc2ncnc(N)c2n1
T/C (dose: 30.0 mg/kg/injection, schedule: Q01DX011 (ip), vehicle: carboxymethylcellulose (CMC)): 46 % of control
